The values below come from patent publication US6987088B2, “Compounds that bind HER2” (Genentech, Inc., priority 1999, dated 2006).

Entries after “also recorded” stand apart in the source; their conditions may differ. Where no end group is shown, it is not given here.

For experiment [1], the target named is T1, HER2-ECD (Homo sapiens, UniProt P04626).
T1 construct: immobilized extracellular domain of Erb2 (HER2-ECD, Hudziak et al. (1991) J. Biol. Chem. 266:24109-15)
Nature of the experiment: HER2 competition ELISA (block binding of 1.1.FI-Zb to immobilized HER2-ECD). Particulars: for HER2 binding activity of Superdex 75 fractions (active species): monomer and dimer fractions assayed in HER2 competition ELISA; for IC50: read-out: IC50, block binding of 1.1.FI-Zb to immobilized HER2, HER2 competition ELISA, 40 nM biotinylated 1.1.FI-Z.
Experimental: By way of exemplification and not limitation an ELISA assay can be conducted wherein microtiter plates (for example, Nunc Maxisorp™ 96-well plates, Inter Med, Denmark) are coated with HER2-ECD in 50 mM ammonium bicarbonate, pH 9.3, using 5 μg/ml, overnight at 4° C. Wells can be blocked using PBS containing 1% BSA (PBS-BSA) for 1 hr at 25° C. […] Following an incubation of about 1 hour the plate is washed with PBS-TWEEN and Strepavidin-HRP is added for about 30 min. Plates are washed again with PBS-TWEEN and the bound HRP assayed using ABTS/H2O2 substrate. The change in absorbance at 405 nm is monitored. Decrease in absorbance is plotted vs. sample concentration and an IC50 for each candidate peptide ligand is determined.
Following a 1 h incubation the plate was washed with PBS-Tween and Strepavidin/HRP conjugate (Streptavidin-POD, Roche Molecular Biochemicals) was added for 30 min. Plates were washed again with PBS-Tween and the bound HRP was assayed using ABTS/H2O2 substrate (Kirkegaard & Perry Laboratories) and the absorbance at 405 nm was monitored. […] Fractions from the HPLC were tested for their ability to compete in the HER2 competition ELISA.

Another experiment deals with T2, HER2 expressed on cells (Homo sapiens, UniProt P04626).
T2 construct: Cells expressing HER2 (BT 474 [3+], MDA 361 [2+], and BaF3 [0+]); endogenous in cells; host or cells: BT 474, MDA 361 (BaF3 as control line without HER2)
As to the kind of experiment: Cell binding by FACS analysis (BT 474, MDA 361, BaF3). Particulars: BT 474 (3×10^6 receptors/cell), MDA 361 (4×10^5 receptors/cell), BaF3 (no HER2); 0, 0.5 or 5 μM. In kind it is cell-based.

Another experiment addresses HER4 (Homo sapiens, UniProt Q15303). Nature of the experiment: Phage binding assay, HER4.
The next experiment has as its target BSA (Bos taurus, UniProt P02769). As to the kind of experiment: Phage binding assay, immobilized BSA. On the procedure:
(§1) • Selection Conditions—HER2-ECD was immobilized directly to maxisorp plates in 50 mM ammonium bicarbonate, pH 9.3, using 5 μg/ml, overnight at 4° C. Wells were blocked using PBS containing 1% BSA (PBS-BSA) for 1 hr at 25° C. Phage from each pool were incubated in wells containing HER2-ECD in PBS-BSA for 3 hr at 25° C.; generally about 5×10^10 phage were added at the beginning of each round. Unbound phage were removed by repetitive washing with PBS containing 0.05% Tween 20 (PBS-Tween); remaining phage were eluted with 500 mM KCl, 10 mM HCl, pH 2. The eluted phage were then amplified in XL1-Blue cells with VCSM13 helper phage (Stratagene) overnight at 37° C. IPTG (10 μM) was added only to the initial phage libraries and during amplification following round 1; later rounds relied on basal expression of the tac promoter for production of peptide-pVIII expression. Enrichment was monitored by titering the number of phage which bound to a target coated well compare to a well coated with BSA. • HER2 Phage Binding Assay—Inhibition of binding of phage displaying a single copy of peptide 1.1FI (Table 1) on their surface to the immobilized extracellular domain of Erb2 (HER2-ECD, Hudziak et al. (1991) J. Biol. Chem. 266:24109-15) was monitored using a phage ELISA. HER2-ECD was immobilized directly to Maxisorp plates (Nunc) in 50 mM ammonium bicarbonate, pH 9.3, using 5 μg/ml, overnight at 4° C. Wells were blocked using PBS containing 1% BSA (PBS-BSA) for 1 h at 25° C. Dilutions of 1.1FI-Fc in PBS-BSA were tested for their ability to block the binding of 1.1FI displaying phage to the immobilized HER2-ECD. The microtiter plate was washed with PBS containing 0.05% Tween20 (PBS-Tween) and the phage bound to HER2-ECD were detected with an anti-gVIII/HRP monoclonal antibody conjugate (Amersham Pharmacia Biotech). The amount of HRP bound Was measured using ABTS/H2O2 substrate and monitoring the change at 405 nm. Results • Selection of Polyvalent Peptide-Phage That Bind to HER2-ECD—Polyvalent peptide libraries were sorted in 7 pools (Table 1) against immobilized HER2-ECD. […]

The target in experiment [2] is T1, HER2-ECD. Nature of the experiment: Phage binding assay, immobilized HER2-ECD. On the procedure: as §1
The next experiment deals with HER3 (Homo sapiens, UniProt P21860). As to the kind of experiment: Phage binding assay, HER3.
HER3, sequence (P21860 20-1342, species assumed): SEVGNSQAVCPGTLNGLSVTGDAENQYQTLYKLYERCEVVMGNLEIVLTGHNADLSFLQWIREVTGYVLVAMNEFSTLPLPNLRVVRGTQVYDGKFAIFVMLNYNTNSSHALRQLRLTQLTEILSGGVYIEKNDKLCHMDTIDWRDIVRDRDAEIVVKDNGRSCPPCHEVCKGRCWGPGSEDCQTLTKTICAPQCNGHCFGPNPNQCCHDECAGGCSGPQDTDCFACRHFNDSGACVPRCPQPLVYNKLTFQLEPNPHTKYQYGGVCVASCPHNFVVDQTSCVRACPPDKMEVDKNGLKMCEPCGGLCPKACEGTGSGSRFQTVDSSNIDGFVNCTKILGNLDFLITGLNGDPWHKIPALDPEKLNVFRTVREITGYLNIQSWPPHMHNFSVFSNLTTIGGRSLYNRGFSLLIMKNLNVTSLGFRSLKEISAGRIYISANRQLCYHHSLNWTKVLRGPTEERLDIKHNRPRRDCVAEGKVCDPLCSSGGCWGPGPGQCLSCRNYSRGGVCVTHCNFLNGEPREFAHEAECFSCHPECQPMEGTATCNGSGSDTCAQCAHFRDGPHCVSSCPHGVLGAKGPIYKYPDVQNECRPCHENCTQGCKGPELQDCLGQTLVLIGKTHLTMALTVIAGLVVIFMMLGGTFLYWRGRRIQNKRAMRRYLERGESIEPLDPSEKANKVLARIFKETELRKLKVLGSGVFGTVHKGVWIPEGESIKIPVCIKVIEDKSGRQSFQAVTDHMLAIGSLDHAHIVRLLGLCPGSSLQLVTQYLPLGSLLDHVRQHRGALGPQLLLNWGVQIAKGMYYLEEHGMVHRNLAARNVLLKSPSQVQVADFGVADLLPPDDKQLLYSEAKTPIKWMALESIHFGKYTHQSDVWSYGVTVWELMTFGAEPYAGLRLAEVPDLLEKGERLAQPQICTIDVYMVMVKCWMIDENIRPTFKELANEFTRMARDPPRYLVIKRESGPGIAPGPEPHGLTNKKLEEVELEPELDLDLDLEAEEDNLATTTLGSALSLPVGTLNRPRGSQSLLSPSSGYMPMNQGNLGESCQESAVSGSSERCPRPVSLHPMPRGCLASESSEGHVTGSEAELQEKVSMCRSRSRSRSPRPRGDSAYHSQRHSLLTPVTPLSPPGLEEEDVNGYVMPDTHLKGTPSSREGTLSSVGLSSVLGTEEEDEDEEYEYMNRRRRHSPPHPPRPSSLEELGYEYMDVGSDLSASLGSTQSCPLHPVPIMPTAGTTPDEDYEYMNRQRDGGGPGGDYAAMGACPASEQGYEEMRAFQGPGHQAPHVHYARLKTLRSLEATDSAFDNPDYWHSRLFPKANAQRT
In another experiment the target is T3, immobilized HER2 (Homo sapiens, UniProt P04626).
T3 construct: immobilized extracellular domain of Erb2 (HER2-ECD, Hudziak et al. (1991) J. Biol. Chem. 266:24109-15)
Nature of the experiment: Binding of Class 1 and Class 7 phage clones to immobilized HER2 in the presence of peptide.

HER4, sequence (Q15303 26-1308, species assumed): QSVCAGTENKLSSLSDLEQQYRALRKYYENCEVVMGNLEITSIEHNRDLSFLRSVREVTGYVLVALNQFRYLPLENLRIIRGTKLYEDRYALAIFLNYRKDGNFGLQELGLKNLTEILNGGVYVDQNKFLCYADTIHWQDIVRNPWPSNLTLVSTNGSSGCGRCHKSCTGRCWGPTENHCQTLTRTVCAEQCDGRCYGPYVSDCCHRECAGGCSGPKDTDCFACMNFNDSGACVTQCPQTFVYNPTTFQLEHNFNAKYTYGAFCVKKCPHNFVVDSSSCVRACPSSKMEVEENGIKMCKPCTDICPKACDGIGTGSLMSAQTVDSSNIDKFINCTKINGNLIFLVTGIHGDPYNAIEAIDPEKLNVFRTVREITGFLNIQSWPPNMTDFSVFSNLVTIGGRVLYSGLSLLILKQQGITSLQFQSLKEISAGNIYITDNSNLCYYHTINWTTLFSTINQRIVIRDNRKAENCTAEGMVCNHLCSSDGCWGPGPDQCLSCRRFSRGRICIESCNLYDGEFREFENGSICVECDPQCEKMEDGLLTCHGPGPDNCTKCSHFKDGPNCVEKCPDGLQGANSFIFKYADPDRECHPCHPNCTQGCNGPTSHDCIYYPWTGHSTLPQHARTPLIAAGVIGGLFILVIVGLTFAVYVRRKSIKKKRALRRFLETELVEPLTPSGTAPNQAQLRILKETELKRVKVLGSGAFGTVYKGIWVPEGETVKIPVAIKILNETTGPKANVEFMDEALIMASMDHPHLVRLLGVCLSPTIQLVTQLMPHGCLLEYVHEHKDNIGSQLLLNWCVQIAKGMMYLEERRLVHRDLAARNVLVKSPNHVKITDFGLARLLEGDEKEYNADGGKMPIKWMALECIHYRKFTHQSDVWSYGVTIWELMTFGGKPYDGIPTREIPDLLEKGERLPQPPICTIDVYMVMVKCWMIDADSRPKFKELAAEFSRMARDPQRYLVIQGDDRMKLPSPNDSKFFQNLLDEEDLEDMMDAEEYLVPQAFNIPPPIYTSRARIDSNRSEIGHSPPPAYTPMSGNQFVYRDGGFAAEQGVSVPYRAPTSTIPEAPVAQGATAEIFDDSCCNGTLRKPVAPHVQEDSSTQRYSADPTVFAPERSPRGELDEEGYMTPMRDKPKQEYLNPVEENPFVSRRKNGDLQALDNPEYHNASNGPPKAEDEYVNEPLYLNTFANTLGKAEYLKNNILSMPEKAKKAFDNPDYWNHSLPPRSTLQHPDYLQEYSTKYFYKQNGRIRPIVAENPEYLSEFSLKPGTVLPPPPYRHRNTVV
BSA, sequence (P02769 25-607): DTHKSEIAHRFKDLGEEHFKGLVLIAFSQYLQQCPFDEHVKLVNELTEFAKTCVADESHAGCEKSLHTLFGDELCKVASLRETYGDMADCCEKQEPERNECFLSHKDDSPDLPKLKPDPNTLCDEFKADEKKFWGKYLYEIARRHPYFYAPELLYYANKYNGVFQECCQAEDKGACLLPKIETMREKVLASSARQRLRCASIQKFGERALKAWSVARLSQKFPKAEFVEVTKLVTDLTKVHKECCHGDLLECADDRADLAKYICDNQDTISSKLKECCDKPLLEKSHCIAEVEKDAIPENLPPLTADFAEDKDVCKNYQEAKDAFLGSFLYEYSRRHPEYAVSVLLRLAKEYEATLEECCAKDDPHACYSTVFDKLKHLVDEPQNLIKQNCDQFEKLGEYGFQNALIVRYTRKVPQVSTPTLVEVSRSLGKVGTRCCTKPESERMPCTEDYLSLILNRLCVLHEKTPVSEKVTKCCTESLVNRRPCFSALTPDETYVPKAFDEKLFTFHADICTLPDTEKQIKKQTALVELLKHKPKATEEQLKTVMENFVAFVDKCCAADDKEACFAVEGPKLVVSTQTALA

“1.1.FI-Z: peptide 1.1.FI expressed and secreted from E. coli as a fusion to the Z domain of protein A (QVYESWGCIGPGCACLQACL)”: in the experiment with HER2-ECD [1], the “HER2 binding activity of Superdex 75 fractions (active species)” value was “coincided with the dimer fractions rather than the monomer fractions; also recorded: coinciding with dimer fractions” and the IC50 amounted to 50 nM.

In the case of “1.1.FI-Zb: biotinylated 1.1.FI-Z preparation (QVYESWGCIGPGCACLQACL; cysteine pairing not given here; also: biotinylated (NHS-LC-biotin), fused to Z domain (not in chain))”, the “Binding to cells by FACS” value in the experiment with HER2 expressed on cells was “bind cells proportional to the number of HER2 receptors expressed on the cell”.

“(FI)2-Z: 1.1.FI sequence repeated twice and fused to the Z domain of protein A, single chain dimer (QVYESWGCIGPGCACLQACLGGGSGGQVYESWGCIGPGCACLQACL; cysteine pairing not given here; also: fused to the Z domain of protein A (end not given here))”: the “HER2 binding activity of Superdex 75 fractions (active species)” value with HER2-ECD [1] is on record as “the active species was now identified as monomer”; with HER2-ECD [1] (listed as (1.1FI)2-Z), “coinciding with monomer fractions”.

In the case of “CSWVLVQCGGEWWHCCGLGCGLVVNAC (cysteine pairing not given here) [7.1]”, the “Phage binding to HER4” value on HER4 is “not”. Also, the “Phage binding to immobilized BSA” value at BSA is listed as “not”. Besides, the “Phage binding to immobilized HER2-ECD” value on HER2-ECD [2] is “bind”. For the same substance, the “Phage binding to HER3” value on HER3 is reported as “not”.

Regarding R S C A D V A S R C W E H C I T [5.1], the “Phage binding to HER4” value on HER4 is listed as “not”. In addition, the “Phage binding to immobilized BSA” value at BSA is on record as “not”. For the same substance, the “Phage binding to immobilized HER2-ECD” value on HER2-ECD [2] was “bind”. The “Phage binding to HER3” value at HER3 is recorded as “not”.

As for “YEVEAWDCMGPGCANLFEAH [1.1]”, at HER4, the “Phage binding to HER4” value is “not”. Further, the “Phage binding to immobilized BSA” value on BSA is recorded as “not”. At HER2-ECD [2], the “Phage binding to immobilized HER2-ECD” value is given as “bind”. Further, the “Phage binding to HER3” value on HER3 was “not”.

In the case of “YSFEGWGCIGPGCAYLFEGH (cysteine pairing not given here) [HER201]”, on immobilized HER2, the “Blocking of binding of Class 1 and Class 7 phage to immobilized HER2” value is “block the binding of both Class 1 and Class 7 phage”.

In the case of “active fraction: HPLC fraction of trypsin-digested 1.1.FI-Z; mass corresponding to HER212 sequence, found to contain dimer (QVYESWGCIGPGCACLQACL; cysteine pairing not given here; also: fraction found to contain dimer)”, the IC50 in the experiment with HER2-ECD [1] was 3 nM.
